The term EC50 denotes the midpoint of the concentration-response curve.

Structures are written as SMILES.

In patent US20240166652A1, “MODULATORS OF THE INTEGRATED STRESS PATHWAY” (Calico Life Sciences LLC, priority 2017, published 2024) one finds EC50 data, which are given here for 12 molecules.

For the first assay, the system named is ATF4 luciferase reporter in HEK293T cells. The experiment in a line: ATF4-Luc assay (ATF4 luciferase reporter, tunicamycin-treated HEK293T cells). Type of assay: cell-based, human. Conditions: HEK293T cells carrying the ATF4 luciferase reporter, 1 μg/mL tunicamycin, 7 hours. On the technique in general: Reporter assays use an easily measured gene product as a stand-in for the process of interest.
As to `O=C(COc1ccc(Cl)cc1)NC12CCC(NC(=O)COc3ccc(F)cc3)(CC1)[C@@H](O)C2` [Compound 708, 2-(4-chlorophenoxy)-N-{(3S)-4-[2-(4-fluorophenoxy)acetamido]-3-hydroxybicyclo[2.2.2]octan-1-yl}acetamide], the EC50 was under 10 nM.

Staying with this assay, now noted: Homo sapiens, HEK-293T; HEK293T cells carrying the ATF4 luciferase reporter, 1 μg/mL tunicamycin, 7 hours.
On to `CN(CCC(=O)O)C1CC2(NC(=O)COc3ccc(Cl)c(F)c3)CCC1(NC(=O)COc1ccc(Cl)c(F)c1)CC2` (stereo not drawn) [Compound 698, 3-[{1,4-bis[2-(4-chloro-3-fluorophenoxy)acetamido]bicyclo[2.2.2]octan-2-yl}(methyl)amino]propanoic Acid], for which the EC50 was in the range of 250 to 500 nM.

Turning to `N#CC(COc1ccc(Cl)cc1)NC12CCC(NC(=O)COc3ccc(Cl)c(F)c3)(CC1)[C@@H](O)C2` (stereo partly drawn) [Compound 699, 2-(4-chloro-3-fluorophenoxy)-N-[(2S)-4-{[2-(4-chlorophenoxy)-1-cyanoethyl]amino}-2-hydroxybicyclo[2.2.2]octan-1-yl]acetamide], the EC50 fell in the range of 10 to 50 nM.

Take `CN(CC(=O)O)C1CC2(NC(=O)COc3ccc(Cl)c(F)c3)CCC1(NC(=O)COc1ccc(Cl)c(F)c1)CC2` (stereo not drawn) [Compound 700, [{1,4-bis[2-(4-chloro-3-fluorophenoxy)acetamido]bicyclo[2.2.2]octan-2-yl}(methyl)amino]acetic Acid]: the EC50 lay within 250 to 500 nM.

With `O=C(COc1ccc(Cl)c(F)c1)NC12CCC(NC(=O)COc3ccc(Cl)c(F)c3)(CC1)C(NC1(CO)COC1)C2` (stereo not drawn) [Compound 701, N,N′-(2-{[3-(hydroxymethyl)oxetan-3-yl]amino}bicyclo[2.2.2]octane-1,4-diyl)bis[2-(4-chloro-3-fluorophenoxy)acetamide]], the EC50 lay within 10 to 50 nM.

Consider `O=C(COc1ccc2c(c1)OC(F)(F)C(F)(F)O2)NC12CCC(NC(=O)COc3ccc(Cl)c(F)c3)(CC1)[C@@H](O)C2` [Compound 702, 2-(4-chloro-3-fluorophenoxy)-N-[(2S)-2-hydroxy-4-{2-[(2,2,3,3-tetrafluoro-2,3-dihydro-1,4-benzodioxin-6-yl)oxy]acetamido}bicyclo[2.2.2]octan-1-yl]acetamide], for which the half-maximal effective concentration (EC50) is under 10 nM.

Regarding `O=C(COc1ccc(Cl)c(F)c1)NC12CCC(NCCCOc3ccc(Cl)c(F)c3)(CC1)[C@@H](O)C2` [Compound 703, 2-(4-chloro-3-fluorophenoxy)-N-[(3S)-4-{[3-(4-chloro-3-fluorophenoxy)propyl]amino}-3-hydroxybicyclo[2.2.2]octan-1-yl]acetamide], the EC50 is under 10 nM.

As to `O=C(COc1ccc(Cl)c(F)c1)NC12CC(N(CCCOc3ccc(Cl)c(F)c3)CCCOc3ccc(Cl)c(F)c3)(C1)C2` [Compound 704, N-(3-{bis[3-(4-chloro-3-fluorophenoxy)propyl]amino}bicyclo[1.1.1]pentan-1-yl)-2-(4-chloro-3-fluorophenoxy)acetamide], the EC50 is 250 to 500 nM.

Consider `O=C(COc1ccc(Cl)c(F)c1)NC12CC(NCCCOc3ccc(Cl)c(F)c3)(C1)C2` [Compound 705, 2-(4-chloro-3-fluorophenoxy)-N-(3-{[3-(4-chloro-3-fluorophenoxy)propyl]amino}bicyclo[1.1.1]pentan-1-yl)acetamide], for which the EC50 fell in the range of 10 to 50 nM.

On to `O=C(COc1ccc(Cl)c(F)c1)NC12CCC(NC(CCOc3ccc(Cl)cc3)C(=O)O)(CC1)C[C@@H]2O` (stereo partly drawn) [Compound 706, 2-({(3S)-4-[2-(4-chloro-3-fluorophenoxy)acetamido]-3-hydroxybicyclo[2.2.2]octan-1-yl}amino)-4-(4-chlorophenoxy)butanoic acid], for which the half-maximal effective concentration (EC50) lay within 250 to 500 nM.

Regarding `O=C(COc1ccc(Cl)c(F)c1)NC12CCC(NC(=O)COc3ccc(Cl)c(F)c3)(CC1)C(NCCO)C2` (stereo not drawn) [Compound 707, N,N′-{2-[(2-hydroxyethyl)amino]bicyclo[2.2.2]octane-1,4-diyl}bis[2-(4-chloro-3-fluorophenoxy)acetamide]], the EC50 is under 10 nM.

As for `O=C(COc1cc(F)c2cn[nH]c2c1)NC12CCC(NC(=O)COc3ccc4cn[nH]c4c3)(CC1)[C@@H](O)C2` [Compound 709], the concentration giving a half-maximal response (EC50) was under 10 nM.
